Results as given in publication PMC8835475, “Salviolone from Salvia miltiorrhiza Roots Impairs Cell Cycle Progression, Colony Formation, and Metalloproteinase-2 Activity in A375 Melanoma Cells: Involvement of P21(Cip1/Waf1) Expression and STAT3 Phosphorylation” (International Journal of Molecular Sciences, 2022).

Columns and labels:
Format in all cases: cell-based, human
pCdk2 = assay: Immunoblot of pCdk2 in A375 cells; settings: A375, 20 µM, 48 or 72 h
Protocol: (§1) A375 cells were seeded in 6 cm Petri dishes (190 300 cell/dish) and treated with different compounds at 10 or 20 μM. After 48- or 72-h treatment, the cells were scraped using warm 1× sample buffer (2% SDS, 10% glycerol, 50 mM Tris-HCl, 1.75% β-mercaptoethanol, and bromophenol blue) and boiled at 99 °C for 10 min. Total protein extracts were kept at −80 °C until use.
(§2) Protein extracts were analyzed with a 7.5 or 10% polyacrylamide SDS-PAGE and transferred to a polyvinylidene difluoride membrane (PVDF, Thermo Fisher Scientific, Waltham, MA, USA). The membranes were blocked at RT for 1 h with TBST buffer (10 mM Tris-HCl pH 7.5, 100 mM NaCl, 0.1% Tween20) containing 4% Milk (Formulat). […] Immuno-detection was carried out with an ECL kit (GE-Healthcare, Little Chalfont, UK), and the chemiluminescence signals were detected with ChemiDoc (Bio-Rad, Hercules, CA, USA).

A375 melanoma cells = assay: Soft agar colony formation assay; settings: A375, 5 and 10 µM, 21-day culture
Protocol: Before seeding, 6-well plates were prepared with soft agar, as follows: the bottom layer was filled with 1% low-gelling temperature agarose and 2X DMEM, supplemented with 20% FBS and 2% Antibiotic Antimycotic Solution (Gibco, BRL Invitrogen Corp., Carlsbad, CA, USA). After 30 min, cells (5000 cell/well) were suspended in 0.6% agarose and 2X DMEM supplemented with 20% FBS and 2% Antibiotic Antimycotic Solution (Gibco, BRL Invitrogen Corp., Carlsbad, CA, USA) and placed over the 0.5% agarose layer. Then, either cryptotanshinone (4) or salviolone (7) at 5–10 μM was added directly into each well and 100 μL of fresh media was added twice a week for 3 weeks. The semi-solid cultures were performed in triplicate and images captured.

p-Ser727-STAT3 = assay: Immunoblot of p-Ser727-STAT3 in A375 cells; settings: A375, 20 µM, 72 h
Protocol: as §1, §2

Akt = assay: Immunoblot of total Akt in A375 cells; settings: A375, 20 µM, 48 and 72 h
Protocol: as §1, §2

MMP2 gelatinase activity = assay: Gelatin zymography of MMP2 activity in A375 cells; settings: A375, 10 and 20 µM, gel zymography
Protocol: A gel zymography assay can measure the ability of matrix metalloproteinases (MMPs) to digest their substrate gelatin present in the gel. Thus, the zymographic approach allows sensitive and quantifiable analysis of the activity of MMPs that can be recognized by their molecular weight. […] Both compounds 7 and 4 at 10 and 20 µM inhibited MMP2 gelatinase activity in the A375 melanoma cell line (Figure 6B).
A375 cells were cultured in the presence of 10 or 20 µM cryptotanshinone (4), salviolone (7), or 1 µM onconase (provided by Prof. G. Gotte), as a positive control, for 48 h and then they were serum starved for 24 h. The conditioned medium was collected and 10× concentrated with an Amicon Ultra-2 Centrifugal filter unit (Merck-Millipore, Milan, Italy). Protein concentrations were determined with Coomassie (Thermo Fisher Scientific, Waltham, MA, USA) and samples treated with a non-reducing sample buffer. To separate proteins, a 7.5% SDS-PAGE was performed. The gel contained 4 mg/mL of gelatin (Sigma-Aldrich, Milan, Italy) and was washed with 50 mM Tris-HCl pH 7.5, 5 mM CaCl2, and 1 μM ZnCl2 supplemented with 2.5% Triton X-100 (Serva Electrophoresis, Heidelberg, Germany). […] The gel was stained with 0.5% Coomassie Brilliant Blue R-250 in 20% ethanol/10% acetic acid, and the gelatinase activity was detected by evaluating the presence and intensity of clear bands on the blue background.

pRb = assay: Immunoblot of pRb in A375 cells; settings: A375, 20 µM, 48 or 72 h
Protocol: as §1, §2

SMILES | pCdk2 (active form of Cdk2) expression level (pCdk2) | number and dimension of colonies formed on soft agar (A375 melanoma cells) | p-Ser727-STAT3 level (p-Ser727-STAT3) | expression level of Akt total protein (Akt) | MMP2 gelatinase activity (MMP2 gelatinase activity) | phosphorylation of Rb (pRb) expression level (pRb)
C[C@H]1COC2=C1C(=O)C(=O)c1c2ccc2c1CCCC2(C)C [Compound 4, cryptotanshinone] | slightly reduced | decreased | increase | not changed | inhibited | slightly reduced
Cc1cc2ccc3c(c2cc(O)c1=O)CCCC3(C)C [Compound 7, salviolone] | strongly reduced | decreased | increase | not changed | inhibited | strongly reduced
